The values below come from patent US20240247080A1, “GLP1/GIP/NPY2 RECEPTOR TRIPLE AGONISTS” (Boehringer Ingelheim International GmbH, priority 2022, published 2024).

Type in all cases: cell-based
Settings in all cases: CreLuc reporter gene assay

One experiment concerns the target T1, hGLP1R (Homo sapiens, UniProt P43220).
T1 construct: expressed in transfected cells; host or cells: HEK-293 cells carrying a CRE-luciferase reporter gene
Put plainly: hGLP1R CreLuc reporter gene assay in 0.5% and 100% plasma. Put shortly: (§1)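 Agonist EC50s came from 8-concentration curves over four decades, fitted by non-linear variable-slope regression of CRE-driven luciferase luminescence. Cells were exposed 4 h at 37 °C, in buffer with 0.5% human plasma or in 100% plasma; GIPR was expressed in CHO cells, GLP-1R and NPY2R in HEK cells.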
A general note: In a reporter assay the amount or activity of a reporter protein is the signal.

A further experiment deals with T2, hGIPR (Homo sapiens, UniProt P48546).
T2 construct: expressed in transfected cells; host or cells: CHO cells carrying a CRE-luciferase reporter gene
T2 sequence (P48546 22-466): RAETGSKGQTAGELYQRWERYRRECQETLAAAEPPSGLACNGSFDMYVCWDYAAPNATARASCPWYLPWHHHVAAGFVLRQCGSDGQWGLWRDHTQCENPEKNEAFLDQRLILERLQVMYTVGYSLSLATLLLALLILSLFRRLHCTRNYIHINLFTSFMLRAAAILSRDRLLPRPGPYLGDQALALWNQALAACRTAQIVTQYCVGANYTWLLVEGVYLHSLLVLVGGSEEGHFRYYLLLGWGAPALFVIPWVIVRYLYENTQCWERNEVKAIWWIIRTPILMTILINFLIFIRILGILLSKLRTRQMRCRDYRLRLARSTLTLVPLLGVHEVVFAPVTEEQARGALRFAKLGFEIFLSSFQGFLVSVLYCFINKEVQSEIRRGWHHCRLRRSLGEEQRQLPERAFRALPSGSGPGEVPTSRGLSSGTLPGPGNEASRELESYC
Put plainly: hGIPR CreLuc reporter gene assay in 0.5% and 100% plasma. In outline: as §1

Another experiment deals with T3, hNPY2R (Homo sapiens, UniProt P49146).
T3 construct: expressed in transfected cells; host or cells: HEK-293 cells carrying a CRE-luciferase reporter gene
T3 sequence (P49146 1-381): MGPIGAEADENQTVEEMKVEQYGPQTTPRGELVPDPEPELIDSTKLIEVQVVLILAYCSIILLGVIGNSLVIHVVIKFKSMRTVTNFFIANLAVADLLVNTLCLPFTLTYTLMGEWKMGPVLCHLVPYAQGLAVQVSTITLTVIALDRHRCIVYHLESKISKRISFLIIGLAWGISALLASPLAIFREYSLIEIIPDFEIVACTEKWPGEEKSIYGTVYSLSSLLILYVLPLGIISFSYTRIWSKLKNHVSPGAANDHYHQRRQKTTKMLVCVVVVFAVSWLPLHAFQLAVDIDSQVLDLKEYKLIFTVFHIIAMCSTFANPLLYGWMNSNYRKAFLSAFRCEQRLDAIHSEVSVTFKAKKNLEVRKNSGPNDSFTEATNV
Put plainly: hNPY2R CreLuc reporter gene assay in 0.5% and 100% plasma. In outline: as §1

[1] abbreviates: 0.5% human plasma, read-out: hGLP1R 0.5% hP.
[2] abbreviates: 0.5% human plasma, read-out: hGIPR 0.5% hP.
Where [3] appears, read: 100% human plasma, read-out: hGIPR 100% hP.
The mark [4] stands for this setting: 0.5% human plasma, read-out: hNPY2R 0.5% hP.
Where [5] appears, read: 100% human plasma, read-out: hNPY2R 100% hP.

Where two headings read alike, the source gives them in different places. Starred links: 1 amine or outer side, 2 acyl side, 3 side chain; linkers in the order of their positions; H or OH if unused. Non-standard residues stand in square brackets, D forms with d. Groups on a side chain read outwards from the residue. *: point of attachment. C20 diacid = O=C(O)CCCCCCCCCCCCCCCCCCC(=O)*; C18 diacid = O=C(O)CCCCCCCCCCCCCCCCC(=O)*; γGlu = O=C(O)[C@H](CCC(=O)[*:2])N[*:1]; εLys = N[C@@H](CCCCN[*:1])C(=O)[*:2]; NMeR = CN[C@@H](CCCNC(=N)N)C(=O)O; AEEA = NCCOCCOCC(=O)O; Aib = CC(C)(N)C(=O)O

T1 sequence (P43220 24-463): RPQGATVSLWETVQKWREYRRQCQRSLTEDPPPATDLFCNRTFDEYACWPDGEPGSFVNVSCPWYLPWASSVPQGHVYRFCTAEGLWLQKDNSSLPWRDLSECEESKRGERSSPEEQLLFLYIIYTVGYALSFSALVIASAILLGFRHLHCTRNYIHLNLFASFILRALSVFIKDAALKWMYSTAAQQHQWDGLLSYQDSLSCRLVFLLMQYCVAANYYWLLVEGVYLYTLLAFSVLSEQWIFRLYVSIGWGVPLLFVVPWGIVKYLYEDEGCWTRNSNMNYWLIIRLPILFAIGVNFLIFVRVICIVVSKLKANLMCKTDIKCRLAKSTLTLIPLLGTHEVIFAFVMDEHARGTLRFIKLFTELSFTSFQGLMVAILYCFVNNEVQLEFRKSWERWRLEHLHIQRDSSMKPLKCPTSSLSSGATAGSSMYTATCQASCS

“H-Y[Aib]EGTFTSDYSI[Aib]LEKQAQ[Aib]EFVQWLIK([εLys-γGlu-γGlu-γGlu-γGlu-γGlu-C18 diacid])GGPSEGASLRHYYNWLTRQRY-NH2 [Compound 154, Y-Aib-E-G-T-F-T-S-D-Y-S-I-Aib-L-E-K-Q-A-Q-Aib-E-F-V-Q-W-L-I-K(1,3)-GGPSEGASLRHYYNWLTRQRY-NH2.C18DA-gGlu-gGlu-gGlu-gGlu-gGlu-eLys(1,2)]”: the EC50 at hGLP1R (setting [1]) was determined as 0.26 nM; at hGIPR (setting [2]), 0.4 nM; on hGIPR (setting [3]), 1.07 nM; at hNPY2R (setting [4]) it was 10.7 nM.

Turning to “H-Y[Aib]EGTFTSDYSI[Aib]LEKQAQ[Aib]AFVQWLIK([AEEA-AEEA-Glu-Glu-Glu-Glu-C18 diacid])GGPESGASLRHYYNWLTRQRY-NH2 [Compound 52, Y-Aib-E-G-T-F-T-S-D-Y-S-I-Aib-L-E-K-Q-A-Q-Aib-A-F-V-Q-W-L-I-K(1,3)-GGPESGASLRHYYNWLTRQRY-NH2.C18DA-E-E-E-E-OEG-OEG(1,2)]”, the EC50 on hGLP1R (setting [1]) stood at 0.09 nM; on hGLP1R (100% human plasma, read-out: hGLP1R 100% hP), 3.17 nM; on hGIPR (setting [2]) it was 0.12 nM; at hGIPR (setting [3]), 0.65 nM; at hNPY2R (setting [4]), 18.7 nM.

Take “H-Y[Aib]EGTFTSDYSI[Aib]LEKQAQ[Aib]AFVQWLIK([γGlu-γGlu-γGlu-γGlu-γGlu-C18 diacid])GGPSEGASLRHYYNWLTRQRY-NH2 [Compound 250, Y-Aib-E-G-T-F-T-S-D-Y-S-I-Aib-L-E-K-Q-A-Q-Aib-A-F-V-Q-W-L-I-K(1,3)-GGPSEGASLRHYYNWLTRQRY-NH2.C18DA-gGlu-gGlu-gGlu-gGlu-gGlu(1,2)]”: the EC50 was found to be 0.08 nM on hGLP1R (setting [1]), 0.2 nM at hGIPR (setting [2]), 1.25 nM on hGIPR (setting [3]) and 12.2 nM at hNPY2R (setting [4]).

On to “H-Y[Aib]EGTFTSDYSI[Aib]LEKQAQ[Aib]AFVEWLIK([εLys-γGlu-γGlu-γGlu-γGlu-γGlu-γGlu-C20 diacid])GGPSSPASLRHYYNWLTRQRY-NH2 [Compound 95, Y-Aib-E-G-T-F-T-S-D-Y-S-I-Aib-L-E-K-Q-A-Q-Aib-A-F-V-E-W-L-I-K(1,3)-GGPSSPASLRHYYNWLTRQRY-NH2.C20DA-gGlu-gGlu-gGlu-gGlu-gGlu-gGlu-eLys(1,2)]”, for which the EC50 was 0.13 nM on hGLP1R (setting [1]), 0.13 nM at hGIPR (setting [2]), 0.75 nM on hGIPR (setting [3]) and 20.6 nM on hNPY2R (setting [4]).

Turning to “H-Y[Aib]EGTFTSDYSI[Aib]LEKQAQ[Aib]AFVQWLIK([εLys-γGlu-γGlu-γGlu-γGlu-γGlu-γGlu-C20 diacid])GGPSSYVSLRHYYNWLTRQRY-NH2 [Compound 15, Y-Aib-E-G-T-F-T-S-D-Y-S-I-Aib-L-E-K-Q-A-Q-Aib-A-F-V-Q-W-L-I-K(1,3)-GGPSSYVSLRHYYNWLTRQRY-NH2.C20DA-gGlu-gGlu-gGlu-gGlu-gGlu-gGlu-eLys(1,2)]”, the EC50 on hGLP1R (setting [1]) amounted to 0.16 nM; on hGIPR (setting [2]), 0.32 nM; on hGIPR (setting [3]), 2.43 nM; at hNPY2R (setting [5]), 15.4 nM.

As to “H-Y[Aib]EGTFTSDYSI[Aib]LEKQAQ[Aib]AFVEWLIK([εLys-γGlu-γGlu-γGlu-γGlu-γGlu-γGlu-C20 diacid])GGPSEGASLRHYYNWLTRQ[NMeR]Y-NH2 [Compound 236, Y-Aib-E-G-T-F-T-S-D-Y-S-I-Aib-L-E-K-Q-A-Q-Aib-A-F-V-E-W-L-I-K(1,3)-G-G-P-S-E-G-A-S-L-R-H-Y-Y-N-W-L-T-R-Q-NMeR-Y-NH2.C20DA-gGlu-gGlu-gGlu-gGlu-gGlu-gGlu-eLys(1,2)]”, the EC50 on hGLP1R (setting [1]) is 0.26 nM; on hGIPR (setting [2]) it was 0.3 nM; at hNPY2R (setting [4]) it was 31 nM.

Regarding “H-Y[Aib]EGTFTSDYSI[Aib]LEKQAQ[Aib]AFVQWLIK([εLys-γGlu-γGlu-γGlu-γGlu-γGlu-C20 diacid])GGPSEGASLRHYYNWLTRQRY-NH2 [Compound 242, Y-Aib-E-G-T-F-T-S-D-Y-S-I-Aib-L-E-K-Q-A-Q-Aib-A-F-V-Q-W-L-I-K(1,3)-GGPSEGASLRHYYNWLTRQRY-NH2.C20DA-gGlu-gGlu-gGlu-gGlu-gGlu-eLys(1,2)]”, the EC50 on hGLP1R (setting [1]) came out at 0.13 nM; at hGIPR (setting [2]), 0.32 nM; on hGIPR (setting [3]) it was 1.72 nM; on hNPY2R (setting [5]), 28.8 nM.

For the compound “H-Y[Aib]EGTFTSDYSI[Aib]LEKQAQ[Aib]EFVQWLIK([γGlu-γGlu-γGlu-γGlu-γGlu-γGlu-C20 diacid])GGPSEGASLRHYYNWLTRQRY-NH2 [Compound 185, Y-Aib-E-G-T-F-T-S-D-Y-S-I-Aib-L-E-K-Q-A-Q-Aib-E-F-V-Q-W-L-I-K(1,3)-GGPSEGASLRHYYNWLTRQRY-NH2.C20DA-gGlu-gGlu-gGlu-gGlu-gGlu-gGlu(1,2)]”, the EC50 on hGLP1R (setting [1]) amounted to 0.4 nM; on hGIPR (setting [2]), 0.33 nM; at hNPY2R (setting [4]), 13.3 nM.

As to “H-Y[Aib]EGTFTSDYSI[Aib]LEKQAQ[Aib]AFVEWLIK([εLys-γGlu-γGlu-γGlu-γGlu-γGlu-γGlu-C20 diacid])GGPSSGVS[Aib]RHYYNWLTRQRY-NH2 [Compound 38, Y-Aib-E-G-T-F-T-S-D-Y-S-I-Aib-L-E-K-Q-A-Q-Aib-A-F-V-E-W-L-I-K(1,3)-G-G-P-S-S-G-V-S-Aib-R-H-Y-Y-N-W-L-T-R-Q-R-Y-NH2.C20DA-gGlu-gGlu-gGlu-gGlu-gGlu-gGlu-eLys(1,2)]”, the EC50 on hGLP1R (setting [1]) is 0.06 nM; on hGIPR (setting [3]), 0.7 nM; at hNPY2R (setting [5]), 17.8 nM.

Consider “H-Y[Aib]EGTFTSDYSI[Aib]LEKQAQ[Aib]AFVEWLIK([γGlu-γGlu-γGlu-γGlu-C18 diacid])GGPEEGASLRHYYNWLTRQRY-NH2 [Compound 272, Y-Aib-E-G-T-F-T-S-D-Y-S-I-Aib-L-E-K-Q-A-Q-Aib-A-F-V-E-W-L-I-K(1,3)-GGPEEGASLRHYYNWLTRQRY-NH2.C18DA-gGlu-gGlu-gGlu-gGlu(1,2)]”, for which the EC50 came to 0.31 nM at hGLP1R (setting [1]), 0.24 nM on hGIPR (setting [2]), 3.01 nM on hGIPR (setting [3]) and 23.8 nM at hNPY2R (setting [4]).

For the compound `CC[C@H](C)[C@H](NC(=O)[C@H](CC(C)C)NC(=O)[C@H](Cc1c[nH]c2ccccc12)NC(=O)[C@H](CCC(=O)O)NC(=O)[C@@H](NC(=O)[C@H](Cc1ccccc1)NC(=O)[C@H](C)NC(=O)C(C)(C)NC(=O)[C@H](CCC(N)=O)NC(=O)[C@H](C)NC(=O)[C@H](CCC(N)=O)NC(=O)[C@H](CCCCN)NC(=O)[C@H](CCC(=O)O)NC(=O)[C@H](CC(C)C)NC(=O)C(C)(C)NC(=O)[C@@H](NC(=O)[C@H](CO)NC(=O)[C@H](Cc1ccc(O)cc1)NC(=O)[C@H](CC(=O)O)NC(=O)[C@H](CO)NC(=O)[C@@H](NC(=O)[C@H](Cc1ccccc1)NC(=O)[C@@H](NC(=O)CNC(=O)[C@H](CCC(=O)O)NC(=O)C(C)(C)NC(=O)[C@@H](N)Cc1ccc(O)cc1)[C@@H](C)O)[C@@H](C)O)[C@@H](C)CC)C(C)C)C(=O)N[C@@H](CCCCNC(=O)[C@@H](N)CCCCNC(=O)CC[C@H](NC(=O)CC[C@H](NC(=O)CC[C@H](NC(=O)CC[C@H](NC(=O)CC[C@H](NC(=O)CC[C@H](NC(=O)CCCCCCCCCCCCCCCCCCC(=O)O)C(=O)O)C(=O)O)C(=O)O)C(=O)O)C(=O)O)C(=O)O)C(=O)NCC(=O)NCC(=O)N1CCC[C@H]1C(=O)N[C@@H](CO)C(=O)N[C@@H](CO)C(=O)NCC(=O)N[C@@H](CCC(N)=O)C(=O)N[C@@H](CO)C(=O)N[C@@H](CC(C)C)C(=O)N[C@@H](CCCNC(=N)N)C(=O)N[C@@H](Cc1c[nH]cn1)C(=O)N[C@@H](Cc1ccc(O)cc1)C(=O)N[C@@H](Cc1ccc(O)cc1)C(=O)N[C@@H](CC(N)=O)C(=O)N[C@@H](Cc1c[nH]c2ccccc12)C(=O)N[C@@H](CC(C)C)C(=O)N[C@H](C(=O)N[C@@H](CCCNC(=N)N)C(=O)N[C@@H](CCC(N)=O)C(=O)N[C@@H](CCCNC(=N)N)C(=O)N[C@@H](Cc1ccc(O)cc1)C(N)=O)[C@@H](C)O` [Compound 84, Y-Aib-E-G-T-F-T-S-D-Y-S-I-Aib-L-E-K-Q-A-Q-Aib-A-F-V-E-W-L-I-K(1,3)-GGPSSGQSLRHYYNWLTRQRY-NH2.C20DA-gGlu-gGlu-gGlu-gGlu-gGlu-gGlu-eLys(1,2)], the EC50 on hGLP1R (setting [1]) turned out to be 0.13 nM; on hGIPR (setting [2]) it was 0.23 nM; on hGIPR (setting [3]), 1.43 nM; on hNPY2R (setting [5]), 35.2 nM.
